Records with an inconclusive call do not appear. Calls of active or inactive are those of the source. No rule for the calls is given here.
Tests used:
[1] = tested on: non-replicating M. tuberculosis, luciferase reporter luminescence; experiment: inhibitors of non-replicating M. tuberculosis, dose response, luciferase, dry powder (AID 743183)
[2] = as above; conditions: non-replicating M. tuberculosis, luciferase reporter luminescence; at 38 µM (top of the series)

| Compound | AC90 [1] [µM] | activity change, negative = inhibition [2] |
| --- | --- | --- |
| C=CCn1c(NC(=O)c2ccccc2)nc2ccccc21 | 7.69 | – |
| NC1CCN(c2c(F)cc3c(=O)c(C(=O)O)cn(C4CC4)c3c2Cl)C1 (configuration not stated) | 2.04 | – |
| Brc1c(-c2ccc3c(c2)OCO3)nc2ncccn12 | 12.9 | – |
| O=C(COc1cccc2ccccc12)Nc1nc2ccccc2[nH]1 | 6.61 | – |
| CCOC(=O)COc1ccc2c(=O)cc(-c3ccccc3)oc2c1 | 2.9 | – |
| CCOC(=O)COc1ccc2c(c1)C(=O)CC1(CCCCC1)O2 | 5.77 | – |
| CCOC(=O)CNC(=O)N1c2ccccc2Sc2ccccc21 | – | -75.4% (inactive) |
| O=C(OCc1ccc(Cl)c(Cl)c1)c1ccccn1 | – | -46.6% (inactive) |
| Clc1cccc(CNCCNCc2cccc(Cl)c2)c1 | 19.4 | – |
| COC(=O)COc1ccc2c(=O)c(Oc3ccccc3)c(C)oc2c1 | 2.94 | – |
| Cc1cc(NC(=O)C2CCCCC2)n(-c2nc3ccccc3[nH]2)n1 | 12.9 | – |
| CCc1ccc(OCCCC(=O)NCc2ccco2)cc1 | 31.8 | – |
| O=C(COc1c(Br)cc(Br)c2cccnc12)N1CCCCC1 | 7.78 | – |
| O=C(NCc1cccs1)c1ccc(Br)o1 | 5.8 | – |
| COC(=O)COc1cccc(NC(=O)c2ccc(Cl)cc2)c1 | 11.7 | – |
| Cc1cc(C)n2nc(S(=O)(=O)Nc3c(Cl)cccc3Cl)nc2n1 | 5.45 | – |
| O=C(CCc1ccccc1)NC1C2CC3CC(C2)CC1C3 (configuration not stated) | 10.3 | – |
| CCOC(=O)c1cc(-c2csc(COc3ccccc3Cl)n2)on1 | 4.52 | – |
| CCOC(=O)COc1ccc2c(=O)c(-c3ccccc3)coc2c1 | 3.65 | – |

| Compound | AC90 [1] [µM] | activity change, negative = inhibition [2] |
| --- | --- | --- |
| c1ccc(Nc2nc(-c3ccccn3)cs2)cc1 | 1.95 | – |
| N#Cc1nc(-c2cccs2)oc1NCCc1ccccc1 | – | -87.4% (inactive) |
| Cc1ccc(C)c(-c2csc(NC(=O)c3cnccn3)n2)c1 | – | -66.6% (inactive) |
| Fc1ccc(-c2ccc(CNCc3ccccn3)o2)cc1Cl | 13.7 | – |
| O=C(Nc1nc2ccccc2[nH]1)c1cccc(Cl)c1 | 4.96 | – |
| Cc1nnc(NC(=O)c2ccc3ccccc3c2)o1 | 0.372 | – |
| O=C(NC1CC2CCC1C2)C1COc2ccccc2O1 (configuration not stated) | 1.39 | – |
| CCCCN(C/C=C/c1ccccc1OC)Cc1ccccc1 | 24.6 | – |
| CCOCCOC(=O)COc1ccc2c(-c3ccccc3)cc(=O)oc2c1 | 8.82 | – |
| Cc1cccc(C)c1N1C(=O)CC(N2CCSCC2)C1=O (configuration not stated) | 4.7 | – |
| Clc1cccc(-c2ccc(CNCc3ccccn3)o2)c1 | 16.3 | – |
| CCOC(=O)COc1ccc(C(=O)NC2CCCCC2)cc1 | 8.93 | – |
| NC(=O)C1(N2CCCCC2)CCN(C2CC(=O)N(CCc3ccccc3)C2=O)CC1 (configuration not stated) | 22.3 | – |
| Cc1cccc(Cn2ccc(NC(=O)c3ccc4c(c3)OCO4)n2)c1 | 9.73 | – |
| CS(=O)(=O)Cc1nc2ccccc2oc1=O | 38.6 | – |
| CCCOC(=O)c1ccc(NC(=O)c2ccc(Br)o2)cc1 | 7.14 | – |
| CCOC(=O)c1cc(-c2csc(COc3ccccc3)n2)on1 | 6.95 | – |
| O=C(CCN1CCC(c2cccs2)=N1)c1cccs1 | 14.3 | – |

From PubChem BioAssay AID743183 (Broad Institute, 2013)
